Legend:
[1] = Liver injury after mirtazapine alone (serum ALT, histology); format: in vivo, mouse; conditions: data not shown
Description: Male 8-10 week old C57BL/6 mice (Jackson Labs, Bar Harbor, Me.) were used. All procedures were approved by the University of Calgary Animal Care Committee (protocol numbers AC14-0129 and AC14-0128) and were performed in accordance with the guidelines of the Canadian Council on Animal Care. To delineate the impact of mirtazapine treatment upon liver immune cell numbers and phenotype, and upon cytokine/chemokine networks within the liver, mice were treated with mirtazapine 1-20 mg/kg intraperitoneally^13-15. Mirtazapine was suspended in 1% aqueous solution of Tween 80, whereas the control group received 1% aqueous solution of Tween 80. Blood and liver samples were collected 5 hours post-mirtazapine treatment (or 16 hours post-Con A treatment). The detailed experimental protocols, lists of antibodies and reagents used, flow cytometry gating, and immune cell phenotyping strategies, are described herein.
To assess liver injury, plasma alanine aminotransferase (ALT) activity was measured (Roche-Hitachi Modular-P800 apparatus; Roche, Mannheim, Germany). Additionally, formalin-fixed liver tissue slices were stained with Hematoxylin and Eosin (H&E) for microscopic examination. Extent of liver parenchymal necrosis was quantitated as previously described, using an Olympus XC10 camera (acquired using the Olympus VS-ASW software package; original magnification ×400). […]

PBC patients = experiment: THIN database cohort study of PBC patients: decompensation, liver transplant and mortality free survival by drug usage; format: in vivo, human
Source text: We conducted a cohort study using The Health Improvement Network (THIN). THIN is one of the largest medical databases in the UK^8, consisting of prospectively gathered electronic medical records from over 11.1 million patients^8. […] Data from participant general practitioners across the UK is exported to the THIN administrators and database, which is updated every 3 months^11. The THIN database records demographic data and clinical events using Read codes, prescription medications, and laboratory values^12.
We identified patients with PBC Read code “J6160” from April 1974 until May 2007. This cohort was followed until May 2012. We excluded patients having overlap syndrome with autoimmune hepatitis or primary sclerosing cholangitis. The first code of PBC identified in the THIN database was considered the index (ie. diagnosis) date. FIG. 10 provides a flow diagram illustrating the selection of the study population. The primary outcome was the first occurrence of one of the three events following the diagnosis of PBC: (1) decompensation of cirrhosis (ascites, spontaneous bacterial peritonitis, hepatic encephalopathy, hepatorenal syndrome, variceal bleeding, jaundice, or hepatocellular carcinoma); (2) liver transplantation; or (3) death.
Read codes were used to identify patients with chronic depression disorder. Chronic depression was defined as follows: (1) never diagnosed with chronic depression; (2) past depression diagnosis prior to 90 days from PBC diagnosis; and (3) current depression diagnosis if a diagnosis was made within 90 days before or after a PBC diagnosis. Using THIN database therapy files, we assessed the impact of anti-depressant medications on outcomes of PBC patients (mortality, decompensation, and liver transplant).
For each anti-depressant medication, use was defined as follows: (1) never used the medication; (2) past use as defined as a previous code for medication use prior to 90 days of PBC diagnosis; and (3) current medication user if the medication code was identified within 90 days before or after a PBC diagnosis. We assessed the effect of each anti-depressant medication on study outcomes separately. Antidepressants were classified as typical or atypical and stratified accordingly. Atypical antidepressants include: Agomelatine, Bupropion and Mirtazapine. While typical antidepressants include the following groups: (a) Selective Serotonin Reuptake Inhibitors (SSRI): Citalopram, Escitalopram, Fluoxetine, Fluvoxamine, Paroxetine and Sertraline; (b) […] (SNRI): Desvenlafaxine, Duloxetine, Minacipran and Venlafaxine; (c) Serotonin modulators: Nefazodone, Trazodone and Vilazodone; (d) Tricyclics and tetracyclics: Amitriptyline, Amoxapine, Clomipramine, Desipramine, Doxepin, Imipramine, Maprotiline, Nortriptyline and Protriptyline, Trimiprramine; (e) Monamine oxidase inhibitors: Isocarboxazid, Phenelzine, Selegiline and Tranylcypromine.
We assessed age at diagnosis of PBC, sex, and the presence of coexisting liver disease (ie. chronic hepatitis either viral, alcoholic, or fatty liver disease; yes/no). Smoking status was classified (current, former, never smoked, or unknown status) at the time of PBC diagnosis, alcohol consumption was classified (current, former, never consumed alcohol, or unknown status) at PBC diagnosis. Ursodeoxycholic acid (UDCA) usage (ever/never recorded) was also determined.
In our primary analysis, we assessed demographic, clinical, and medication variables in the PBC cohort according to depression status. Where appropriate, we used the Fisher Exact test or Chi-Square test for categorical data, and the Kruskal-Wallis or Student's t-test for continuous data. Univariate analysis using Log Rank test and multivariate Cox Proportional Regression models were used to assess the impact of depression or anti-depressant medications on PBC outcomes as defined by death, decompensated cirrhosis, or liver transplant. […]

[2] = tested on: patients in the UK THIN database; experiment: Retrospective THIN cohort study: incidence of autoimmune diseases with mirtazapine exposure (Example 7); format: in vivo, human; conditions: exposed vs matched (2:1) non-exposed cohort
Source text: Patients who were prescribed mirtazapine. 90 day ([…]) identified and compared to a matched patient cohort (2:1) not exposed to mirtazapine (n=372,822). Out models were adjusted for depression, use of other antidepressants, comorbidity status, smoking and alcohol consumption.

hepatic B cells = experiment: Hepatic B cell characterization by flow cytometry, with liver/plasma cytokine and chemokine levels (Example 6); format: in vivo, mouse
Description: Male C57BL/6 mice (age 8-10 wks) were treated with mirt (20 mg/kg ip) or vehicle and livers removed 3-5 hrs later for B cell isolation and characterization by flow cytometry (FACS). Similarly peripheral blood and splenic B cells numbers were determined by FACS. Liver cytokine and chemokine levels were measured by Luminex®.

[3] = usage prior to PBC diagnosis vs none

CN1CCN2c3ncccc3Cc3ccccc3C2C1 (stereo not shown) [Mirtazapine]
Liver injury as reflected by serum ALT levels or histology [1]: did not induce liver injury
Protective effect against liver decompensation, transplantation, or death (PBC patients; PBC cohort): over four-fold protective effect
Requirement of liver transplant (PBC patients; PBC patients who had ever used the drug): None of the PBC patients who had ever used mirtazapine required liver transplant
Multivariate model-2 HR (include age, gender, alcohol, URSO, depression, mirtazapine) (PBC patients; current usage (after PBC diagnosis) vs none): 0.23
Univariate HR, 10-year decompensation, liver transplant and mortality free survival (PBC patients; current usage vs none): 0.22
Adjusted HR, mortality (PBC patients; current usage, outcome assessed separately): 0.22
Adjusted HR, liver decompensation (PBC patients; current usage, outcome assessed separately, not significant): 0.22
Adjusted HR, decompensated cirrhosis, liver transplant and mortality (PBC patients; sensitivity analysis: only patients using UDCA (n=793), current usage): 0.21
Multivariate model-2 HR (include age, gender, alcohol, URSO, depression, mirtazapine) (PBC patients; [3]): 0.94
Univariate HR, 10-year decompensation, liver transplant and mortality free survival (PBC patients; [3]): 0.84
Adjusted Incidence Rate Ratio (adjusted IRR), Multiple Sclerosis [2]: 0.80
Adjusted Incidence Rate Ratio (adjusted IRR), Psoriasis [2]: 0.93
Adjusted Incidence Rate Ratio (adjusted IRR), Rheumatoid Arthritis [2]: 0.55
B cell CXCR3 expression levels (MFI) (hepatic B cells; 20 mg/kg ip, 3-5 hrs): 12180±315.9
Elevation of hepatic CXCL10 levels (Luminex) (hepatic B cells; 20 mg/kg ip, 3-5 hrs): ~120 fold
Frequency of VLA-4+ hepatic B cells (hepatic B cells; 20 mg/kg ip, 3-5 hrs): 61.9+1.8%
Hepatic CXCR3+ B cells (hepatic B cells; 20 mg/kg ip, 3-5 hrs): 47.5+1.4%
Hepatic CXCR3hi B cells (hepatic B cells; 20 mg/kg ip, 3-5 hrs): 30.7±1.5%
Hepatic CXCR3lo B cells (hepatic B cells; 20 mg/kg ip, 3-5 hrs): did not significantly alter
Increase in hepatic IFNγ levels (Luminex) (hepatic B cells; 20 mg/kg ip, 3-5 hrs): ~8 fold
VLA-4+CXCR3hi B cells (hepatic B cells; 20 mg/kg ip, 3-5 hrs): 16.1±1.7%
Decrease in total hepatic B cell (IgM+) numbers (hepatic B cells; 20 mg/kg ip, within 3-5 hours): ~48%
% B2 cells of IgM+ B cells in liver (hepatic B cells; 5 hr post-treatment): 29.6%+2.3%
B1a B cells within the liver (hepatic B cells; 5 hrs post-treatment): 32.4%+1.5%
Plasma levels of CXCL10 (ELISA) (hepatic B cells; 5 hrs post-treatment): 138.4 ± 24.4 pg/mL
Hepatic B1b B cells (hepatic B cells; 5 hrs post-treatment, NS): 23.5%+1.4%
CD11b+Ly6Chi monocytes producing CXCL10 (hepatic B cells; flow cytometry, 3 hrs post-treatment): 12.2%±3.8%
Hepatic VCAM-1 expression (immunohistochemistry) (hepatic B cells; post-mirt): clear upregulation

— patent US11510928B2, “Use of mirtazapine in the treatment of inflammatory disorders, autoimmune disease and PBC” (UTI Limited Partnership, priority 2017, dated 2022)
